Columns and labels:
HeLa = assay: Mitotic index (phospho-histone H3) assay; assay type: cell-based; settings: Homo sapiens, % mitotic cells (pH3-positive), 24 hours
Text: (§1) Inhibiting the ability of PLK1 and PLK4 to bind to their partners through their PBDs is known to cause cells to arrest in mitosis. Experimentally, this can be measured by assessing the number of cells which are in mitosis at a certain time after treatment with a test compound by immunofluorescent detection of phosphorylated Histone H3 (pH3), a mark which is only present in mitotic cells. PLK1/4-PBD inhibitors are expected to cause a dose-dependent increase in pH3-positive cells, which is reported as Mitotic Index (MI)—the percentage of cells which, at a given time, are positive for this mitotic mark. Cells were plated at 10 000/well in 96-well plates and incubated overnight. The following day atropisomer A-2 stocks in DMSO were diluted in medium then added to cells with a maximum final DMSO concentration on cells of 0.2%. Cells were incubated with the compound for 24 hours then fixed in 3.7% formaldeyde. Cells were permeabilised with 0.1% Triton X-100 then incubated with anti-phospho-histone H3 (Ser10) antibody (Abcam ab5176). The cells were washed with PBS then incubated with AlexaFluor 488 labelled goat anti-rabbit IgG (Invitrogen A11034) in the presence of 4 ug/ml Hoechst 33342 (Invitrogen H3570). Cells were washed in PBS then imaged on an Arrayscan VTi HCS instrument (Thermo Fisher) using the Target Activation V4 Bioapplication. […]

U87MG = assay: Mitotic index (phospho-histone H3) assay; assay type: cell-based; settings: Homo sapiens, U-87 MG; % mitotic cells (pH3-positive), 24 hours
Text: as §1

[1] = system: HeLa cells stably expressing a Centrin1-GFP fusion protein; assay: Centriole number (Centrin1-GFP) assay; assay type: cell-based; settings: 0.02 μM, 72 hours
Procedure: The effect of A-2 on centrosome function was therefore investigated further. HeLa cells stably expressing a Centrin1-GFP fusion protein were seeded into 96-well plates overnight. Cells were treated with atropisomer A-2 (at a concentration of 0.02 μM in DMSO) or DMSO control for 72 hours and then imaged using a fluorescence microscope. Multiple cell fields were captured for each treatment condition, and the images were subsequently analysed manually. Centrin1-GFP specifically marks centrioles as discrete foci, and therefore can be used to quantitate centriole number per cell. Thus, for each treatment condition, 100 cells were analysed and the number of centrioles present in each cell was recorded. The data were then separated into bins (no centrioles, 1 centriole, 2 centrioles, and greater than 2 centrioles) and are shown in FIG. 11.

[2] = Oral bioavailability and brain exposure in mouse PK; assay type: in vivo, Male CD-1 mice; settings: mice
Procedure: Atropisomer A-2 was evaluated in an in vivo mouse model to determine brain and plasma concentrations following p.o. and i.v. dosing. Male CD-1 mice were dosed with atropisomer A-2, either by i.v. administration (2 mg/kg) or by p.o. administration (10 mg/kg). Eight samples were taken for analysis in the i.v. leg at 2, 10, 30 min, 1, 2, 4, 8, and 24 (for i.v) and 9 samples in the p.o. leg at 15, 30 min, 1, 2, 4, 8, 24, 48 and 72 hrs. Atropisomer A-2 was formulated in 10% DMSO/[…] hydroxypropyl-beta-cyclodextrin (20% w/v in water) for i.v. and p.o. dosing. N=3 mice per time point. Post dosing, terminal blood samples were taken from individual animals and delivered into labelled polypropylene tubes containing anticoagulant (EDTA). The samples were held on wet ice for a maximum of 30 min while sampling of all the animals in the cohort was completed. The blood samples were centrifuged for plasma (4° C., 21100 g for 5 min) and the resulting plasma transferred into corresponding labelled tubes. Terminal brains from each PO dosed animal were excised, rinsed with saline and placed into pre-weighed labelled polypropylene tubes and the samples re-weighed prior to storage. Quantitative bioanalysis was carried out using liquid chromatography—mass spectroscopy was performed. The results are shown in Tables 14 and 15 below and in FIGS. 12 and 13.

U87MG cells = assay: Mitotic phenotype classification; assay type: cell-based; settings: 0.03 μM, 24 hours
Procedure: Distinct mitotic phenotypes are induced following inhibition of PLK1 and PLK4 in cells. […] Centriole assembly is controlled by PLK4, with inhibitors inducing a multipolar spindle phenotype due to centrosome defects which results in abnormal cyokinesis (Wong et al., 2015. Science 348(6239); 1155-1160). Cells were plated at 10 000/well in 96-well plates and incubated overnight. The following day atropisomer A-2 stocks in DMSO were diluted in medium then added to cells with a maximum final DMSO concentration on cells of 0.2%. Cells were incubated with the compound for 24 hours then fixed in 3.7% formaldeyde. Cells were permeabilised with 0.1% Triton X-100 then incubated with anti-phospho-histone H3 (Ser10) antibody (Abcam ab5176). The cells were washed with PBS then incubated with AlexaFluor 488 labelled goat anti-rabbit IgG (Invitrogen A11034) in the presence of 4 ug/ml Hoechst 33342 (Invitrogen H3570). Cells were washed in PBS then imaged on an Arrayscan VTi HCS instrument (Thermo Fisher) using the Target Activation V4 Bioapplication. A user-defined threshold was applied to identify mitotic cells based on the intensity of phospho-histone H3 staining. In a separate study, following the above protocol but using single compound concentrations of 0.03 μM for each of atropisomer A-1 and atropisomer A-2, the frequency of observed mitotic phenotypes in U87MG cells was manually assessed and classified into the following phenotypes: non-congressed chromosomes, multipolar spindles/abnormal cytokinesis, monopolar spindles, normal prometaphase, normal metaphase for each of A-1 and A-2.

EC50 (HeLa) [nM] | EC50 (U87MG) [nM] | CI ([2]; 2 mg/Kg IV, plasma) [mL/min/kg] | F ([2]; 10 mg/Kg PO vs 2 mg/Kg IV) [%] | Compound | effect on centriole number per cell [1] | cells with abnormal cytokinesis (U87MG cells) [%] | cells with non-congressed chromosomes (U87MG cells) | cells with normal mitotic phenotype (U87MG cells) [%]
30 | 90 | 20.5 | 76 | CN(C)CCNC(=O)c1ccc(-c2ccc(-c3ccc(Cl)cc3)n2-c2ccccc2C(F)(F)F)cc1 (single isomer, unassigned) [Atropisomer A-2] | evidence of PLK4 inhibition phenotypes | – | – | –
– | – | – | – | CN(C)CCNC(=O)c1ccc(-c2ccc(-c3ccc(Cl)cc3)n2-c2ccccc2C(F)(F)F)cc1 (single isomer, unassigned; atropisomer a) [Atropisomer A-1] | – | 24 | No evidence | 76
